# Experimental data reported in patent US20040259866A1, “Calcium channel blockers comprising two benzhydril moieties” (priority 1998, published 2004).
# Read-outs that look alike come from different tables or passages of the source.
# Tests used:
# [1] = biological target: T1, rat α1B+α2b+β1b channels (N-type channels) (Rattus norvegicus, UniProt Q02294); assay: Block of α1B N-type channels, whole cell patch recordings (Example 6); assay type: cell-based; details: HEK 293, 5 mM barium as charge carrier
# T1 construct: expressed in transfected cells
# T1 sequence (Q02294 whole entry): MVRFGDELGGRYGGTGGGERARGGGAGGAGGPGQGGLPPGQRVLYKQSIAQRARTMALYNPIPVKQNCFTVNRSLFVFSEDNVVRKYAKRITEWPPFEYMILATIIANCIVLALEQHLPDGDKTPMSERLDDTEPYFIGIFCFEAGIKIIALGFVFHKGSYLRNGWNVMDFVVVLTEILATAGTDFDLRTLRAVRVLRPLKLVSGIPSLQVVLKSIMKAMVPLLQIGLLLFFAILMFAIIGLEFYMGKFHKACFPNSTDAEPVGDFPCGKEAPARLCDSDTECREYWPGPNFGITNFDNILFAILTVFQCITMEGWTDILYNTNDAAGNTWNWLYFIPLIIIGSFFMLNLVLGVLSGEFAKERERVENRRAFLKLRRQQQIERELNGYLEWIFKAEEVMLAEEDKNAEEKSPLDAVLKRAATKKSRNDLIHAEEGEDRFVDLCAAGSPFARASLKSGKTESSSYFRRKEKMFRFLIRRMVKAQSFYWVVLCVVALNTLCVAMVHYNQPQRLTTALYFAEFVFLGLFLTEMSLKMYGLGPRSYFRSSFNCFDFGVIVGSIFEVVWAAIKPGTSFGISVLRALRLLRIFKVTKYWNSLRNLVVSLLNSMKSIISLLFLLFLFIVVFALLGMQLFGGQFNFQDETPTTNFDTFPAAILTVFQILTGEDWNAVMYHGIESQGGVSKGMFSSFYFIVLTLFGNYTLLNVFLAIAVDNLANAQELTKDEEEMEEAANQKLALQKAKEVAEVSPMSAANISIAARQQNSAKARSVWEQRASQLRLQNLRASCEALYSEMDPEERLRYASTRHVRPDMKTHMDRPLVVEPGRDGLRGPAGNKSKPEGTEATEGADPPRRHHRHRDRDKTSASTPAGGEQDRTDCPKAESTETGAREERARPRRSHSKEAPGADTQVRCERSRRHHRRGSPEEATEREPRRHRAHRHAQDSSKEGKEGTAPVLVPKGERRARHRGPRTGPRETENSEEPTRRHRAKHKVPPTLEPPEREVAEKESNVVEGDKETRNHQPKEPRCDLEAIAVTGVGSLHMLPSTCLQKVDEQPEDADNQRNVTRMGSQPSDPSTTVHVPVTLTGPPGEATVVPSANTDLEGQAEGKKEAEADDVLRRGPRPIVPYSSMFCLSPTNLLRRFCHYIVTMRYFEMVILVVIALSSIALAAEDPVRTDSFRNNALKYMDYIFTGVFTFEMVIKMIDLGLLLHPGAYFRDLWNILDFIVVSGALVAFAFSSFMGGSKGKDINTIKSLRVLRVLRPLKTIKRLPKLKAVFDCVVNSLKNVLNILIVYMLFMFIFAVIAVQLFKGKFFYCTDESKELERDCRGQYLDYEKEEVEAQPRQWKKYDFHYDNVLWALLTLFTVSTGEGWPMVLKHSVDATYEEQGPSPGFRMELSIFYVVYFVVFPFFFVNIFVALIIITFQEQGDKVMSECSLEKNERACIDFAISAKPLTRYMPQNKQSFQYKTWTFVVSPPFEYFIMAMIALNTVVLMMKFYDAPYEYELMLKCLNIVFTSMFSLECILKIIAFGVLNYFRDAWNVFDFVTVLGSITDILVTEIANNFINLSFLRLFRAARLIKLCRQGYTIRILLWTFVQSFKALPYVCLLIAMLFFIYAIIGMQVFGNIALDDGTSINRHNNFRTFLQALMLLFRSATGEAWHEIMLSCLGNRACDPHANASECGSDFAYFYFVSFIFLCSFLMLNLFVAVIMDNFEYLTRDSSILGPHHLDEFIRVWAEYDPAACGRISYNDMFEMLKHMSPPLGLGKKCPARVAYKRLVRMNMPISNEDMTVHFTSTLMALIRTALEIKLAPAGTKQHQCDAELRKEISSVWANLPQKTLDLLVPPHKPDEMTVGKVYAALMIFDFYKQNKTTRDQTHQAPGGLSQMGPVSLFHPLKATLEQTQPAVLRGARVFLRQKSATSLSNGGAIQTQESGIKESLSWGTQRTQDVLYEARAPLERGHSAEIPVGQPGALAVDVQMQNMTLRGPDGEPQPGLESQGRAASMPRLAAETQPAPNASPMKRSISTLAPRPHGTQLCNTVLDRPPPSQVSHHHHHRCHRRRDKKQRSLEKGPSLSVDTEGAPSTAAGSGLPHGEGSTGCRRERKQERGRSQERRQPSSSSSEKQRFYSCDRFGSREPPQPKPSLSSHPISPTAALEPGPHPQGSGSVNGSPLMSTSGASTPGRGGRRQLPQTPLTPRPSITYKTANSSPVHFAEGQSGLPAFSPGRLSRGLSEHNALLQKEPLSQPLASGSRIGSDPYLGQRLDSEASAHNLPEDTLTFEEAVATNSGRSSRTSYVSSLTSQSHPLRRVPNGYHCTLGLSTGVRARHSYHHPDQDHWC
# Procedure: Antagonist activity was measured using whole cell patch recordings on human embryonic kidney cells either stably or transiently expressing rat α1B+α2b+β1b channels (N-type channels) with 5 mM barium as a charge carrier.
# For transient expression, host cells, such as human embryonic kidney cells, HEK 293 (ATCC# CRL 1573) were grown in standard DMEM medium supplemented with 2 mM glutamine and 10% fetal bovine serum. HEK 293 cells were transfected by a standard calcium-phosphate-DNA coprecipitation method using the rat α1B+β1b+α2δ N-type calcium channel subunits in a vertebrate expression vector (for example, see Current Protocols in Molecular Biology).
# After an incubation period of from 24 to 72 hrs the culture medium was removed and replaced with external recording solution (see below). Whole cell patch clamp experiments were performed using an Axopatch 200B amplifier (Axon Instruments, Burlingame, Calif.) linked to an IBM compatible personal computer equipped with pCLAMP software. Borosilicate glass patch pipettes (Sutter Instrument Co., Novato, Calif.) were polished (Microforge, Narishige, Japan) to a resistance of about 4 MΩ when filled with cesium methanesulfonate internal solution (composition in MM: 109 CsCH3SO4, 4 MgCl2, 9 EGTA, 9 HEPES, pH 7.2). Cells were bathed in 5 mM Ba^++ (in mM: 5 BaCl2, 1 MgCl2, 10 HEPES, 40 tetraethylammonium chloride, 10 glucose, 87.5 CsCl pH 7.2). […] Drugs were perfused directly into the vicinity of the cells using a microperfusion system.
# Normalized dose-response curves were fit (Sigmaplot 4.0, SPSS Inc., Chicago, Ill.) by the Hill equation to determine IC50 values. Steady-state inactivation curves were plotted as the normalized test pulse amplitude following 5 s inactivating prepulses at +10 mV increments. Inactivation curves were fit (Sigmaplot 4.0) with the Boltzman equation, Ipeak (normalized)=1/(1+exp((V-Vh)z/25.6)), where V and Vh are the conditioning and half inactivation potentials, respectively, and z is the slope factor.
# Using the procedure set forth above, various compounds of the invention were tested for their ability to block N-type calcium channels.
# [2] = tested on: L-type channels (α1C+α2δ+β1b cDNA subunits); assay: Selectivity patch clamp, L-type channels in HEK 293 (Example 7); assay type: cell-based; details: Tested at 0.1 Hz, 5 mM Ba2+
# [3] = biological target: T2, N-type calcium channels (α1B+α2δ+β1b cDNA subunits) (Rattus norvegicus, UniProt Q02294); assay: Selectivity patch clamp, N-type channels in HEK 293 (Example 7); assay type: cell-based; details: Tested at 0.1 Hz, 5 mM Ba2+
# T2 construct: expressed in transfected cells
# T2 sequence (Q02294 whole entry): as above
# [4] = tested on: P/Q-type channels (α1A+α2δ+β1b cDNA subunits); assay: Selectivity patch clamp, P/Q-type channels in HEK 293 (Example 7); assay type: cell-based; details: Tested at 0.1 Hz, 5 mM Ba2+
# rat formalin model = assay: Formalin-induced pain model; assay type: in vivo; details: 30 mg/kg IP, 10 minutes prior to formalin, saline control=100%
# Procedure: The effects of intrathecally delivered compounds of the invention on the rat formalin model were measured. The compounds were reconstituted to stock solutions of approximately 10 mg/ml in propylene glycol. Eight Holtsman male rats of 275-375 g size were randomly selected per test compound.
# The following study groups were used, with test compounds, vehicle control (propylene glycol) and saline delivered intraperitoneally (IP):
# Prior to initiation of drug delivery baseline behavioral and testing data were taken.
# On the morning of testing, a small metal band (0.5 g) was loosely placed around the right hind paw. The rat was placed in a cylindrical Plexiglas chamber for adaptation a minimum of 30 minutes. Test compound or vehicle control was administered 10 minutes prior to formalin injection (50 μl of 5% formalin) into the dorsal surface of the right hindpaw of the rat. The animal was then placed into the chamber of the automated formalin apparatus where movement of the formalin injected paw was monitored and the number of paw flinches tallied by minute over the next 60 minutes. (See Malmberg, A. M., and Yaksh, T. L., Anesthesiology (1993) 79:270-281.)
# Results are presented as Maximum Possible Effect±SEM, where saline control=100%.
# [5] = biological target: T3, human α1G subunits (T-type channels) (Homo sapiens, UniProt O43497); assay: Block of α1G T-type channels, patch clamp in HEK cell lines (Example 8); assay type: cell-based
# T3 construct: expressed in transfected cells
# T3 sequence (O43497 whole entry): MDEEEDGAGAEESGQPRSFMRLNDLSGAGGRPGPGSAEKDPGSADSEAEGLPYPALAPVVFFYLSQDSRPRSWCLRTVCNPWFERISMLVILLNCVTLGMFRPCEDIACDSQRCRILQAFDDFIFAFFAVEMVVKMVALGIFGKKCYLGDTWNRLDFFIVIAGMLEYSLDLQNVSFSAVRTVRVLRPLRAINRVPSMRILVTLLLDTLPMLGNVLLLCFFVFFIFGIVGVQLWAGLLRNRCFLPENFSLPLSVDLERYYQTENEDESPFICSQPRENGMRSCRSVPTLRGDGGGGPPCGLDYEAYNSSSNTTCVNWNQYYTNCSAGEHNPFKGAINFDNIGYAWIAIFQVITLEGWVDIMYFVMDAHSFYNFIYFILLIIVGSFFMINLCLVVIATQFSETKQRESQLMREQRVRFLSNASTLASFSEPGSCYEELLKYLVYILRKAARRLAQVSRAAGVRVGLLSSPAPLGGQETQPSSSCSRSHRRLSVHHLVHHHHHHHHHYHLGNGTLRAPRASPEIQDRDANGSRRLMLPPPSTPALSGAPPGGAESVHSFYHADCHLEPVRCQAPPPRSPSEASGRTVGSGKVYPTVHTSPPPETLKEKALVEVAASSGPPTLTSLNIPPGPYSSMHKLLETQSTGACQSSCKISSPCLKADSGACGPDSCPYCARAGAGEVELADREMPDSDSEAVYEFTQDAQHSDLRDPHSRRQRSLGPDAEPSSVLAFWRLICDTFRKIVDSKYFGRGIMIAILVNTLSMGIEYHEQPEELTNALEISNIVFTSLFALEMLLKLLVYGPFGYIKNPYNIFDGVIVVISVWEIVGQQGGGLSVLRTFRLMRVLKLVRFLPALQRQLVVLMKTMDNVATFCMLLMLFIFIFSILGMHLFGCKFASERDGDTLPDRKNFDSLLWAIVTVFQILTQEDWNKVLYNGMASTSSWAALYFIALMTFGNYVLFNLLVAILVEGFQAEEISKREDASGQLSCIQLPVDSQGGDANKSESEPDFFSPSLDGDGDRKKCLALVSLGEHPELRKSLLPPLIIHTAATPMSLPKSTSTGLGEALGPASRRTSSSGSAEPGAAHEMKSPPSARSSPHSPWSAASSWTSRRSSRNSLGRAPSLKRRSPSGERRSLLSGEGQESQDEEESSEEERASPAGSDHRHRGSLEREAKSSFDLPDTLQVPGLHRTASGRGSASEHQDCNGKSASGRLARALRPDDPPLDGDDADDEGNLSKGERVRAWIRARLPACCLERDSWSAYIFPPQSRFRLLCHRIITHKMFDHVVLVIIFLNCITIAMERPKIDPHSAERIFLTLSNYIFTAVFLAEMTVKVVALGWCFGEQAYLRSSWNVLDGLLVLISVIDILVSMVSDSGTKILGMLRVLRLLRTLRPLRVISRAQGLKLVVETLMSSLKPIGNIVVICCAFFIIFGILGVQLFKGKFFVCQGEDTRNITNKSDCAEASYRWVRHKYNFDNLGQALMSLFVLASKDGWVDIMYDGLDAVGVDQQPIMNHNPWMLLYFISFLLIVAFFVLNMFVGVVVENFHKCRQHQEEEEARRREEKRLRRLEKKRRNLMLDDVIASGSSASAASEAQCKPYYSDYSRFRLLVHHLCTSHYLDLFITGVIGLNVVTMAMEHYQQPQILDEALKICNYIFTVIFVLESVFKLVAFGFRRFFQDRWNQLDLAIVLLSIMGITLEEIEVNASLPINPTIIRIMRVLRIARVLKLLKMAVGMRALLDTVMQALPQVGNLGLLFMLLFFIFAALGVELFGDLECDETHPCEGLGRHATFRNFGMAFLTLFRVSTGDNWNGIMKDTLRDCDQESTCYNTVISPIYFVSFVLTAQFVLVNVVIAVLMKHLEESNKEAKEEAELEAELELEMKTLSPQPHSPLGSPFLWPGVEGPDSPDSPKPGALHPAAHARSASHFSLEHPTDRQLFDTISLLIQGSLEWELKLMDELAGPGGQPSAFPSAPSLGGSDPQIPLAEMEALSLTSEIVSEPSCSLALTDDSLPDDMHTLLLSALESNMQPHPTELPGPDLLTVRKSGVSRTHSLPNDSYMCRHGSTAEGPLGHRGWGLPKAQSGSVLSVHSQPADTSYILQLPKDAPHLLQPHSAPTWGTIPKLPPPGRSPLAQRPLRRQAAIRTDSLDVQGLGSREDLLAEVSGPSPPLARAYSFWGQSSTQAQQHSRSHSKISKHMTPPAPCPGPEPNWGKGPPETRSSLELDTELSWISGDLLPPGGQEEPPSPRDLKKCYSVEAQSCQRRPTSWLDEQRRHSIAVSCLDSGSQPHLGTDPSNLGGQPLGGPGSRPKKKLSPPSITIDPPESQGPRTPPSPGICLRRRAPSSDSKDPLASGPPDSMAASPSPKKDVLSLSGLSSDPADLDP
# Procedure: Standard patch-clamp techniques were employed to identify blockers of T-type currents. Briefly, previously described HEK cell lines stably expressing human α1G subunits were used for all the recordings (passage #: 4-20, 37° C., 5% CO2). To obtain T-type currents, plastic dishes containing semi-confluent cells were positioned on the stage of a ZEISS AXIOVERT S100 microscope after replacing the culture medium with external solution (see below). Whole-cell patches were obtained using pipettes (borosilicate glass with filament, O.D.: 1.5 mm, I.D.: 0.86 mm, 10 cm length), fabricated on a SUTTER P-97 puller with resistance values of ˜5 MΩ (see below for internal medium).
# In the non-inactivating protocol, the holding potential is set at −110 mV and with a pre-pulse at −100 mV for 1 second prior to the test pulse at −40 mV for 50 ms; in the inactivation protocol, the pre-pulse is at approximately −85 mV for 1 second, which inactivates about 15% of the T-type channels, as shown below. [formula]
# Test compounds were dissolved in external solution, 0.1-0.01% DMSO. After ˜10 min rest, they were applied by gravity close to the cell using a WPI microfil tubing. The “non-inactivated” pre-pulse was used to examine the resting block of a compound. The “inactivated” protocol was employed to study voltage-dependent block, but the initial data shown below were mainly obtained using the non-inactivated protocol only. IC50 values are shown for various compounds of the invention in Table 5.
# [6] = 0.067 Hz, read-out: Block of α1B N-type Channels IC50, 0.067 Hz
# [7] = 0.2 Hz, read-out: Block of α1B N-type Channels IC50, 0.2 Hz
# [8] = 100 mV (non-inactivating protocol), read-out: Block of α1G T-type Channels IC50, 100 mV
# [9] = 80 mV (inactivation protocol), read-out: Block of α1G T-type Channels IC50, 80 mV
Structure (SMILES),"IC50 [1, 6] [nM]","IC50 [1, 7] [nM]",IC50 [2] [µM],IC50 [3] [nM],IC50 [4] [µM],"IC50 [5, 8] [nM]","IC50 [5, 9] [nM]","Maximum Possible Effect ± SEM, Phase I (rat formalin model) [%]","Maximum Possible Effect ± SEM, Phase II (rat formalin model) [%]","Maximum Possible Effect ± SEM, Phase IIA (rat formalin model) [%]"
O=C(CC(c1ccccc1)c1ccccc1)N1CCN(C(c2ccccc2)c2ccc(C(F)(F)F)cc2)CC1 (centres unmarked) [Compound P1],100,74,19.6,190,0.97,,,,,
O=C(CC(c1ccccc1)c1ccccc1)N1CCN(C(c2ccccc2)c2cccc(C(F)(F)F)c2)CC1 (centres unmarked) [Compound P2],200,105,6.6,113,1.63,,,57 ± 14,67 ± 10,61 ± 11
COc1ccc(C(c2ccc(C(F)(F)F)cc2)N2CCN(C(=O)CC(c3ccccc3)c3ccccc3)CC2)cc1 (centres unmarked) [Compound P3],291,111,> 10,185,7.59,,,89 ± 8,79 ± 4,85 ± 5
CC(C)(C)c1cc(C(c2ccccc2)N2CCN(C(=O)CC(c3ccccc3)c3ccccc3)CC2)cc(C(C)(C)C)c1O (centres unmarked) [Compound P4],213,114,> 10,251,> 10,,,,,
CCOC(=O)C1CN(C(c2ccccc2)c2ccccc2)CCN1C(=O)CC(c1ccccc1)c1ccccc1 (centres unmarked) [Compound P5],160,120,210,73,5,,,,,
O=C(CC(c1ccccc1)c1ccccc1)N1CCN(C(c2ccccc2)c2ccc3c(c2)OCO3)CC1 (centres unmarked) [Compound P7],213,137,15.8,101,6.5,,,56 ± 12,67 ± 6,61 ± 11
Cl.O=C(O)C1CN(C(c2ccccc2)c2ccccc2)CCN1C(=O)CC(c1ccccc1)c1ccccc1 (centres unmarked) [Compound P8],230,140,37.1,360,3.4,,,78 ± 5,70 ± 15,57 ± 18
Cc1ccc(C(c2ccccc2)N2CCN(C(=O)CC(c3ccccc3)c3ccccc3)CC2)c(C)c1 (centres unmarked) [Compound P18],324,237,13.4,217,3.59,35,,73 ± 17,84 ± 12,78 ± 13
O=C(CN(c1ccccc1)c1ccccc1)N1CCN(C(c2ccccc2)c2cccc(Cl)c2Cl)CC1 (centres unmarked) [Compound P50],,,,,,,,60 ± 7,63 ± 10,63 ± 13

# Further lines, with some results ahead:
"IC50 [1, 6] [nM]","IC50 [1, 7] [nM]",IC50 [2] [µM],IC50 [3] [nM],IC50 [4] [µM],"IC50 [5, 8] [nM]","IC50 [5, 9] [nM]",Structure (SMILES),"Maximum Possible Effect ± SEM, Phase I (rat formalin model) [%]","Maximum Possible Effect ± SEM, Phase II (rat formalin model) [%]","Maximum Possible Effect ± SEM, Phase IIA (rat formalin model) [%]"
170,120,133,160,4.5,81,,O=C(CC(c1ccccc1)c1ccccc1)N1CCN(C(c2ccccc2)c2ccc(Cl)cc2)CC1 (centres unmarked) [Compound P6],,,
,,126,385,26,33,4,O=C(CC(c1ccccc1)c1ccccc1)N1CCN(C(c2ccccc2)c2ccc(Cl)cc2Cl)CC1 (centres unmarked) [Compound P29],78 ± 17,70 ± 10,61 ± 9
211,92,106,209,7.03,,141,O=C(CC(c1ccccc1)c1ccccc1)N1CCN(C(c2ccccc2)c2ccccc2Cl)CC1 (centres unmarked) [Compound P35],78 ± 8,67 ± 8,52 ± 11
114,44,8.5,206,0.93,,55,O=C(CC(c1ccccc1)c1ccccc1)N1CCN(C(c2ccccc2)c2cccc(Cl)c2)CC1 (centres unmarked) [Compound P36],62 ± 14,60 ± 10,42 ± 9
237,138,4.37,197,1.86,1440,464,O=C(CC(c1ccccc1)c1ccccc1)N1CCN([C@@H](c2ccccc2)c2ccc(Cl)cc2)CC1 [Compound P47],60 ± 7,55 ± 8,54 ± 9
